# Experimental data from ChEMBL document CHEMBL1131840, “Structure-based design and synthesis of a novel class of Src SH2 inhibitors” (Bioorg Med Chem Lett, 1999).
# Legend:
# [1] = target: T1, Proto-oncogene tyrosine-protein kinase Src (Homo sapiens, UniProt P12931); experiment: Inhibition of binding to Src SH2 domain
# [2] = target: T1, Proto-oncogene tyrosine-protein kinase Src; experiment: Binding affinity for Src SH2 domain
# T1 sequence (P12931 2-536 limits assumed): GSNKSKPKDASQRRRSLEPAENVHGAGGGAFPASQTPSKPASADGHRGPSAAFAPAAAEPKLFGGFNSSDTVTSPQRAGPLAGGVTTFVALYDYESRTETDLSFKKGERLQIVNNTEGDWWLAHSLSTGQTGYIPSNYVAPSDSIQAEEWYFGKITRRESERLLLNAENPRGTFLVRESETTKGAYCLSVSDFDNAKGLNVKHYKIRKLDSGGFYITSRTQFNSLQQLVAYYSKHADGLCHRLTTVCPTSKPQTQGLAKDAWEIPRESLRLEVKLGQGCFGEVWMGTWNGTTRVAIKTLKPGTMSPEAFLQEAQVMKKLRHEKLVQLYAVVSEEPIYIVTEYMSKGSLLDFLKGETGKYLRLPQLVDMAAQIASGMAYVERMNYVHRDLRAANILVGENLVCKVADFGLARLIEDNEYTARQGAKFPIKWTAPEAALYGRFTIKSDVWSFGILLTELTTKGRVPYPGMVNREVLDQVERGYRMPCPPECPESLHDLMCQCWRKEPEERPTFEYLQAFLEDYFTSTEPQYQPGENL
IC50 [1] [µM],SMILES,Kd [2] [µM]
769,CC(=O)N[C@@H](Cc1ccc(OP(=O)(O)O)cc1)C(=O)NCc1cccc(CC2CCCCC2)c1,–
–,CC[C@H](C)[C@H](NC(=O)[C@H](CCC(=O)O)NC(=O)[C@H](CCC(=O)O)NC(=O)[C@@H](N)Cc1ccc(OP(=O)(O)O)cc1)C(=O)O,0.1
306,CC[C@H](NC(=O)[C@H](Cc1ccc(OP(=O)(O)O)cc1)NC(C)=O)c1cccc(CC2CCCCC2)c1,–
